{"source": "paper PMC6416464", "about": "(Drug Metabolism Letters, 2018)", "key": {"CYP1A2": {"molecular_target": "T1, CYP1A2 (Homo sapiens, UniProt P05177)", "T1 sequence (P05177 1-516)": "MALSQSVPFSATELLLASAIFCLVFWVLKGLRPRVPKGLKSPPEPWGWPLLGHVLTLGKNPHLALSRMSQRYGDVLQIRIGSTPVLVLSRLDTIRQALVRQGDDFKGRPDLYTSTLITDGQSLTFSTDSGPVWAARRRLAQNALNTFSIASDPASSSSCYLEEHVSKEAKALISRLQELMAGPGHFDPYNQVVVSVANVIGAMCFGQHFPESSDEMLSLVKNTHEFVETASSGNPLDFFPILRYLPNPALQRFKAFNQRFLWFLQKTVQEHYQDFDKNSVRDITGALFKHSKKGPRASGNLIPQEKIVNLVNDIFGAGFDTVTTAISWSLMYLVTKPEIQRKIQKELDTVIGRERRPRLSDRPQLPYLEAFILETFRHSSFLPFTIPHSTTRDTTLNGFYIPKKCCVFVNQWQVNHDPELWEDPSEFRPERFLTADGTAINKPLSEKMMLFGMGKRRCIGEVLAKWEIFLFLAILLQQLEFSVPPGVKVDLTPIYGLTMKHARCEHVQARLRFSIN", "assay": "CYP inhibition in human liver microsomes, CYP1A2"}, "rCYP2C9": {"molecular_target": "rCYP2C9 (Homo sapiens, UniProt P11712)", "sequence (P11712 whole entry)": "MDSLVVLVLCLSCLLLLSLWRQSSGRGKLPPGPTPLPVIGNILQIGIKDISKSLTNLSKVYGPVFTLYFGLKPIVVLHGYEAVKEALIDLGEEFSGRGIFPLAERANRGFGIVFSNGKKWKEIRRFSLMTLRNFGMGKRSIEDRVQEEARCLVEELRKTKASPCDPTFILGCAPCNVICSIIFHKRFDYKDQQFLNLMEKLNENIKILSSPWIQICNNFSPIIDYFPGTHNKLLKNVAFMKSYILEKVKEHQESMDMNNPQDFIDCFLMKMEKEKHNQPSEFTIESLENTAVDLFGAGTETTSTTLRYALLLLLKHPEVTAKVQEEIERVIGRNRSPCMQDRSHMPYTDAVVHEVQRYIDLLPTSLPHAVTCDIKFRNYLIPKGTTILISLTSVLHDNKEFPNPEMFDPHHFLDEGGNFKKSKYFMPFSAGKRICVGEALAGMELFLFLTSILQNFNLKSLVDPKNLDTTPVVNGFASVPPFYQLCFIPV", "assay": "Metabolic stability / reaction phenotyping with recombinant human CYP2C9"}, "CYP2C19": {"molecular_target": "CYP2C19 (Homo sapiens, UniProt P33261)", "sequence (P33261 whole entry)": "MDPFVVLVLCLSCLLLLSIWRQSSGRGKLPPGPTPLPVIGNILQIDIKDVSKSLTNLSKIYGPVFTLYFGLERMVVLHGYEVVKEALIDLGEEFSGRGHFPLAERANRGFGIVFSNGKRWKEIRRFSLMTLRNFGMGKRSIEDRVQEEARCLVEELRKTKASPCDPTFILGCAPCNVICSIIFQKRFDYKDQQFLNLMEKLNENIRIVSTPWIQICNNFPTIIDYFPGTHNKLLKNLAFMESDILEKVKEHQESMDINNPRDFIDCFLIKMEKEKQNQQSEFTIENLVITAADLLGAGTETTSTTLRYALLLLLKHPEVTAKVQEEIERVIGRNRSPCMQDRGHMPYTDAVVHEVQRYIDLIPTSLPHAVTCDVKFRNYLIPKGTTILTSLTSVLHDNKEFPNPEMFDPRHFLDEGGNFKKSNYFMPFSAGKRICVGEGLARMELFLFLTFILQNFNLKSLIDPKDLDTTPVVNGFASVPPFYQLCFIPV", "assay": "CYP inhibition in human liver microsomes, CYP2C19"}, "rCYP1A2": {"molecular_target": "T2, rCYP1A2 (Homo sapiens, UniProt P05177)", "T2 sequence (P05177 1-516)": "T1 sequence (P05177 1-516)", "assay": "Metabolic stability / reaction phenotyping with recombinant human CYP1A2"}, "CYP3A4 [1]": {"molecular_target": "T3, CYP3A4 (Homo sapiens, UniProt P08684)", "T3 sequence (P08684 2-503)": "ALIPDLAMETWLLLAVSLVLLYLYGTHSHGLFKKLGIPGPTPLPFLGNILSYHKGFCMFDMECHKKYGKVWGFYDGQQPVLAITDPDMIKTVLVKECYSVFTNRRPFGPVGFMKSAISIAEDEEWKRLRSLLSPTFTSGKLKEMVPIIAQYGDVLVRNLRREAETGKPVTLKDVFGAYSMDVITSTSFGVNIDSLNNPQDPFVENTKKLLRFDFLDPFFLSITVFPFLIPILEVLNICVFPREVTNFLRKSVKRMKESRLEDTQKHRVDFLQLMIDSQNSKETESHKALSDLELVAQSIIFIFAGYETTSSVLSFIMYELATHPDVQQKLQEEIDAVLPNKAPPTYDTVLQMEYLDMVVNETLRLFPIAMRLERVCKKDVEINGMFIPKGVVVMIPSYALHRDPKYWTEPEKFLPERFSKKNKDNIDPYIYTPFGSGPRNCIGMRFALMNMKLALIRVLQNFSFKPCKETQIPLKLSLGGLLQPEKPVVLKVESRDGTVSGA", "assay": "biochemical"}, "CYP2C9": {"molecular_target": "CYP2C9 (Homo sapiens, UniProt P11712)", "sequence (P11712 whole entry)": "as the sequence (P11712 whole entry) above", "assay": "CYP inhibition in human liver microsomes, CYP2C9"}, "rCYP3A4": {"molecular_target": "rCYP3A4 (Homo sapiens, UniProt P08684)", "sequence (P08684 whole entry)": "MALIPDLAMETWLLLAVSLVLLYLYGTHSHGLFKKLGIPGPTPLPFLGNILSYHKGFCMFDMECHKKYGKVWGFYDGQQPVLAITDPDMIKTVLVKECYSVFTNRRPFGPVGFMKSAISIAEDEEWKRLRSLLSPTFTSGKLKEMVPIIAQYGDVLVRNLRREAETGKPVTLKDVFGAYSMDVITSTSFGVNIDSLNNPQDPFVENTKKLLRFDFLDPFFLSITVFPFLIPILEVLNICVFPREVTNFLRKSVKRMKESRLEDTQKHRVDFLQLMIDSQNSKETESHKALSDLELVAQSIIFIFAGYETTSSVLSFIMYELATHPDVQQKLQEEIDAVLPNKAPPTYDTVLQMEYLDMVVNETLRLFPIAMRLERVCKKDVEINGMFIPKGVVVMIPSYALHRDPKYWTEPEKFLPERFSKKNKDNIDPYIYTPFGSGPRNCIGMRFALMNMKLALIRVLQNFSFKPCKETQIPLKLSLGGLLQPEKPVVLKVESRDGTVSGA"}, "rCYP2D6": {"molecular_target": "rCYP2D6 (Homo sapiens, UniProt P10635)", "sequence (P10635 whole entry)": "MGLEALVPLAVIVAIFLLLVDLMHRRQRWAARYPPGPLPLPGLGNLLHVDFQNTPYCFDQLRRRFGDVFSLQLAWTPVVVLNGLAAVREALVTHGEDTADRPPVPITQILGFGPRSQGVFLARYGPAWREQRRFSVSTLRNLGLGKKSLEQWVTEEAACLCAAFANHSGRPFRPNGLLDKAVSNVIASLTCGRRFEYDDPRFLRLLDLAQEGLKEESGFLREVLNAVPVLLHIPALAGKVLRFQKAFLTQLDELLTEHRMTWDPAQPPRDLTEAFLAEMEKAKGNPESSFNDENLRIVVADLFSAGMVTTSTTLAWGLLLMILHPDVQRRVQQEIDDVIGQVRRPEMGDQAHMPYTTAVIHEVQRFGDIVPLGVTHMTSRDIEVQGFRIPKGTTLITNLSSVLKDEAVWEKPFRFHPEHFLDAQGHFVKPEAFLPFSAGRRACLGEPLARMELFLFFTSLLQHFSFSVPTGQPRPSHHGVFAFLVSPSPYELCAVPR", "assay": "Metabolic stability / reaction phenotyping with recombinant human CYP2D6"}, "rCYP2C8": {"molecular_target": "T4, rCYP2C8 (Homo sapiens, UniProt P10632)", "T4 sequence (P10632 1-490)": "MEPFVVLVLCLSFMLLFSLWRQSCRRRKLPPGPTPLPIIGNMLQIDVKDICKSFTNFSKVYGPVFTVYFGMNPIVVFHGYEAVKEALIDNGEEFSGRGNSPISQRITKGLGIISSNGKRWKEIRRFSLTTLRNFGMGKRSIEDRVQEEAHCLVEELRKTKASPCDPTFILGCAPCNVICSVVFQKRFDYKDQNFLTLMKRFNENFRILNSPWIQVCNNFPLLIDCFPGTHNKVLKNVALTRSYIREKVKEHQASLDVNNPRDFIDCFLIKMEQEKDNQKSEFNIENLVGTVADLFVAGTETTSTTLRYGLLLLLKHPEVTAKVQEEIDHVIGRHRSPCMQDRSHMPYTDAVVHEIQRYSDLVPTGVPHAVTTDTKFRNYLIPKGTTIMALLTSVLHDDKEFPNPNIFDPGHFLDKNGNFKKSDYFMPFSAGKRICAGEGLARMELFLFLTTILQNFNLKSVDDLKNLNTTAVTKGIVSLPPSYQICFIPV", "assay": "Metabolic stability / reaction phenotyping with recombinant human CYP2C8", "details": "1 µM test compound; 100 pmol/mL; 30 min"}, "CYP3A4 [2]": {"molecular_target": "T3, CYP3A4", "assay": "in vitro", "details": "microsomes, pH 7.4"}, "[3]": {"assay": "Metabolic stability, incubation with human liver cytosol", "assay_type": "in vitro ADME", "details": "1 µM test compound, 1 mg/mL protein"}, "rCYP2C19": {"molecular_target": "rCYP2C19 (Homo sapiens, UniProt P33261)", "sequence (P33261 whole entry)": "as the sequence (P33261 whole entry) above", "assay": "Metabolic stability / reaction phenotyping with recombinant human CYP2C19"}, "[4]": {"details": "cited from earlier work"}, "[5]": {"assay": "Metabolic stability, incubation with human liver microsomes", "details": "1 µM test compound, 0.5 mg/mL protein"}, "CYP2C8": {"molecular_target": "T5, CYP2C8 (Homo sapiens, UniProt P10632)", "T5 sequence (P10632 1-490)": "T4 sequence (P10632 1-490)", "assay": "CYP inhibition in human liver microsomes, CYP2C8"}, "CYP3A4 [6]": {"molecular_target": "T3, CYP3A4", "assay": "in vitro", "details": "microsomes, pH 7.4, % Inhibition of Control Activity CYP3A4 (substrate, testosterone)"}, "[7]": {"details": "1 µM test compound, 100 pmol/mL, 30 min"}, "[8]": {"details": "human, recombinant human CYP2C9, 1 µM, pH 7.4"}, "[9]": {"details": "human, recombinant human CYP1A2, 1 µM, pH 7.4"}, "[10]": {"details": "human, recombinant enzyme, pH 7.4"}, "[11]": {"details": "human, recombinant human CYP2D6, 1 µM, pH 7.4"}, "[12]": {"details": "human, recombinant human CYP2C19, 1 µM, pH 7.4"}, "[13]": {"details": "human, human liver microsomes, pH 7.4, probe paclitaxel"}}, "note": "pIC50: −log10 of the molar value."}
{"smiles": "CSc1nc2cc(Cl)c(Oc3cccc(Cl)c3Cl)cc2[nH]1", "note": "[Triclabendazole, reference compound]", "values": [{"measurement": "pIC50", "setting": "CYP1A2", "result": 5.97}, {"measurement": "% Metabolized at 30 min Incubation with Human Liver Fractions/Enzymes rCYP2C9", "setting": "rCYP2C9; [7]", "result": 55.00, "unit": "%"}, {"measurement": "% Contribution of CYP Enzymes (fmCYP) in Metabolism, CYP2C9", "setting": "rCYP2C9; [8]", "result": 22.29, "unit": "%"}, {"measurement": "Predicted Microsomal Clint, CYP2C9", "setting": "rCYP2C9; [8]", "result": 25.548, "unit": "µL/min/mg Protein"}, {"measurement": "rCYP Clint, CYP2C9", "setting": "rCYP2C9; [8]", "result": 0.266, "unit": "µL/min/pmol"}, {"measurement": "pIC50", "setting": "CYP2C19", "result": 6.60}, {"measurement": "% Metabolized at 30 min Incubation with Human Liver Fractions/Enzymes rCYP1A2", "setting": "rCYP1A2; [7]", "result": 97.14, "unit": "%"}, {"measurement": "% Contribution of CYP Enzymes (fmCYP) in Metabolism, CYP1A2", "setting": "rCYP1A2; [9]", "result": 53.74, "unit": "%"}, {"measurement": "Predicted Microsomal Clint, CYP1A2", "setting": "rCYP1A2; [9]", "result": 61.600, "unit": "µL/min/mg Protein"}, {"measurement": "rCYP Clint, CYP1A2", "setting": "rCYP1A2; [9]", "result": 1.185, "unit": "µL/min/pmol"}, {"measurement": "pIC50", "setting": "CYP3A4 [1]", "result": 4.82}, {"measurement": "pIC50", "setting": "CYP2C9", "result": 5.93}, {"measurement": "% Metabolized at 30 min Incubation with Human Liver Fractions/Enzymes rCYP3A4", "setting": "rCYP3A4; [7]", "result": 11.70, "unit": "%"}, {"measurement": "Predicted Microsomal Clint, CYP3A4", "setting": "rCYP3A4; human, pH 7.4", "result": 4.604, "unit": "µL/min/mg Protein"}, {"measurement": "% Contribution of CYP Enzymes (fmCYP) in Metabolism, CYP3A4", "setting": "rCYP3A4; [10]", "result": 4.02, "unit": "%"}, {"measurement": "rCYP Clint, CYP3A4", "setting": "rCYP3A4; [10]", "result": 0.041, "unit": "µL/min/pmol"}, {"measurement": "% Metabolized at 30 min Incubation with Human Liver Fractions/Enzymes rCYP2D6", "setting": "rCYP2D6; [7]", "result": 73.66, "unit": "%"}, {"measurement": "% Contribution of CYP Enzymes (fmCYP) in Metabolism, CYP2D6", "setting": "rCYP2D6; [11]", "result": 3.88, "unit": "%"}, {"measurement": "Predicted Microsomal Clint, CYP2D6", "setting": "rCYP2D6; [11]", "result": 4.448, "unit": "µL/min/mg Protein"}, {"measurement": "rCYP Clint, CYP2D6", "setting": "rCYP2D6; [11]", "result": 0.445, "unit": "µL/min/pmol"}, {"measurement": "% Metabolized at 30 min Incubation with Human Liver Fractions/Enzymes rCYP2C8", "setting": "rCYP2C8", "result": 0.00, "unit": "%"}, {"measurement": "inhibition at 2 µM", "setting": "CYP3A4 [2]", "result": "< 0", "unit": "%"}, {"measurement": "inhibition at 10 µM", "setting": "CYP3A4 [2]", "result": "< 0", "unit": "%"}, {"measurement": "% Metabolized at 30 min Incubation with Human Liver Fractions/Enzymes Cytosol", "setting": "[3]", "result": 12.40, "unit": "%"}, {"measurement": "% Metabolized at 30 min Incubation with Human Liver Fractions/Enzymes rCYP2C19", "setting": "rCYP2C19; [7]", "result": 94.55, "unit": "%"}, {"measurement": "% Contribution of CYP Enzymes (fmCYP) in Metabolism, CYP2C19", "setting": "rCYP2C19; [12]", "result": 16.07, "unit": "%"}, {"measurement": "Predicted Microsomal Clint, CYP2C19", "setting": "rCYP2C19; [12]", "result": 18.415, "unit": "µL/min/mg Protein"}, {"measurement": "rCYP Clint, CYP2C19", "setting": "rCYP2C19; [12]", "result": 0.969, "unit": "µL/min/pmol"}, {"measurement": "Cmax", "setting": "[4]; human patients at therapeutic doses of triclabendazole", "result": 1160, "unit": "nM"}, {"measurement": "peak concentration", "setting": "[4]; humans, standard dose of triclabendazole of 10 mg/kg", "result": 1.16, "unit": "µM"}, {"measurement": "% Metabolized at 30 min Incubation with Human Liver Fractions/Enzymes HLM", "setting": "[5]", "result": 51.68, "unit": "%"}, {"measurement": "pIC50", "setting": "CYP2C8; IC50 CYP 2C8, HLM", "result": 5.48}, {"measurement": "inhibition at 2 µM", "setting": "CYP2C8; [13]", "result": 7.09, "unit": "%"}, {"measurement": "inhibition at 10 µM", "setting": "CYP2C8; [13]", "result": 79.7, "unit": "%"}, {"measurement": "inhibition at 2 µM", "setting": "CYP3A4 [6]", "result": 13.5, "unit": "%"}, {"measurement": "inhibition at 10 µM", "setting": "CYP3A4 [6]", "result": 52.9, "unit": "%"}]}
